Values of other authors in article PMC7830118, “Synthesis and Biological Evaluation of ^99mTc(I) Tricarbonyl Complexes Dual-Targeted at Tumoral Mitochondria” (Molecules, 2021).

Tested on: mitochondria fraction isolated from rat myocardium
Protocol: The ^99mTc-BBN complex accumulates to a low extent (0.19 to 0.24%) in mitochondria when compared with the TPP-containing complexes. […] The highest mitochondrial uptake (0.84 ± 0.06%) was found for the dual-targeted complex, ^99mTc-TPP-BBN, after 2 h of incubation. The measured uptakes are relative values that were obtained in the same manner and, therefore, reflect the mitotropic properties of each complex. However, it is worthwhile to mention that in these ...

[99Tc].[C-]#[N+]CC(C)(C)OC.[C-]#[N+]CC(C)(C)OC.[C-]#[N+]CC(C)(C)OC.[C-]#[N+]CC(C)(C)OC.[C-]#[N+]CC(C)(C)OC.[C-]#[N+]CC(C)(C)OC [^99mTc-MIBI]
Mitochondrial uptake after correction for mitochondria in other cellular fractions (correction with CCCP and malate dehydrogenase activity): 68%
Measured mitochondrial uptake (accumulation in the mitochondria fraction), uncorrected (mitochondria fraction isolated from rat myocardium): 2.38%
